Tested on: NHBE cells
Assay: Biolog metabolic array: substrate use by NHBE cells with or without CA09 infection
Type: cell-based, human
Conditions: for Substrate use, 590 nm absorbance normalized to zero hour, 0 hr: Biolog PMM2, 0 hr; for Substrate use, 590 nm absorbance normalized to zero hour, 1 hr: Biolog PMM2, 1 hr; for Substrate use, 590 nm absorbance normalized to zero hour, 5 hr: Biolog PMM2, 5 hr; for Substrate use, 590 nm absorbance normalized to zero hour, 7 hr: Biolog PMM2, 7 hr
[1] = Control (uninfected) NHBE cells
[2] = Virus (CA09-infected NHBE cells, MOI 1)
[3] = Virus: CA09-infected NHBE cells, MOI 1, Biolog PMM2

| Compound | 590 nm absorbance normalized to zero hour (substrate use), 0 hr [1] | 590 nm absorbance normalized to zero hour (substrate use), 1 hr [1] | 590 nm absorbance normalized to zero hour (substrate use), 2 hr [1] | 590 nm absorbance normalized to zero hour (substrate use), 3 hr [1] | 590 nm absorbance normalized to zero hour (substrate use), 4 hr [1] | 590 nm absorbance normalized to zero hour (substrate use), 6 hr [1] | 590 nm absorbance normalized to zero hour (substrate use), 8 hr [1] | 590 nm absorbance normalized to zero hour (substrate use), 9 hr [1] | 590 nm absorbance normalized to zero hour (substrate use), 10 hr [1] | 590 nm absorbance normalized to zero hour (substrate use), 11 hr [1] | Substrate use, 590 nm absorbance normalized to zero hour, 0 hr [1] | Substrate use, 590 nm absorbance normalized to zero hour, 1 hr [1] | Substrate use, 590 nm absorbance normalized to zero hour, 5 hr [1] | Substrate use, 590 nm absorbance normalized to zero hour, 7 hr [1] | 590 nm absorbance normalized to zero hour (substrate use), 0 hr [2] | 590 nm absorbance normalized to zero hour (substrate use), 1 hr [2] | 590 nm absorbance normalized to zero hour (substrate use), 2 hr [2] | 590 nm absorbance normalized to zero hour (substrate use), 3 hr [2] | 590 nm absorbance normalized to zero hour (substrate use), 4 hr [2] | 590 nm absorbance normalized to zero hour (substrate use), 5 hr [2] | other results |
| --- | --- | --- | --- | --- | --- | --- | --- | --- | --- | --- | --- | --- | --- | --- | --- | --- | --- | --- | --- | --- | --- |
| OC[C@H]1O[C@@H](O[C@H]2[C@H](O)[C@@H](O)[C@@H](O)O[C@@H]2CO)[C@H](O)[C@@H](O)[C@H]1O [a-D-Lactose] | 1.00 | 0.44 | 0.58 | 0.65 | 0.69 | 0.63 | 0.94 | 1.01 | 1.02 | 0.92 | 1.00 | 0.44 | 0.82 | 0.88 | 1.00 | 0.17 | 0.22 | 0.26 | 0.28 | 0.33 | 590 nm absorbance normalized to zero hour (substrate use), 6 hr [2]: 0.35; 590 nm absorbance normalized to zero hour (substrate use), 7 hr [2]: 0.37; 590 nm absorbance normalized to zero hour (substrate use), 8 hr [2]: 0.39; 590 nm absorbance normalized to zero hour (substrate use), 9 hr [2]: 0.42; 590 nm absorbance normalized to zero hour (substrate use), 10 hr [2]: 0.41; 590 nm absorbance normalized to zero hour (substrate use), 11 hr [2]: 0.39; 590 nm absorbance normalized to zero hour (substrate use), 0 hr [3]: 1.00; 590 nm absorbance normalized to zero hour (substrate use), 1 hr [3]: 0.17; 590 nm absorbance normalized to zero hour (substrate use), 2 hr [3]: 0.22; 590 nm absorbance normalized to zero hour (substrate use), 3 hr [3]: 0.26; 590 nm absorbance normalized to zero hour (substrate use), 4 hr [3]: 0.28; 590 nm absorbance normalized to zero hour (substrate use), 5 hr [3]: 0.33; 590 nm absorbance normalized to zero hour (substrate use), 6 hr [3]: 0.35; 590 nm absorbance normalized to zero hour (substrate use), 7 hr [3]: 0.37; 590 nm absorbance normalized to zero hour (substrate use), 8 hr [3]: 0.39; 590 nm absorbance normalized to zero hour (substrate use), 9 hr [3]: 0.42; 590 nm absorbance normalized to zero hour (substrate use), 10 hr [3]: 0.41; 590 nm absorbance normalized to zero hour (substrate use), 11 hr [3]: 0.39 |
| CCC(=O)C(=O)O [a-Keto-Butyric Acid] | 1.00 | 1.10 | 1.17 | 1.24 | 1.25 | 1.49 | 1.34 | 1.36 | 1.37 | 1.39 | 1.00 | 1.10 | 1.28 | 1.33 | 1.00 | 0.28 | 0.29 | 0.30 | 0.31 | 0.32 | 590 nm absorbance normalized to zero hour (substrate use), 6 hr [2]: 0.32; 590 nm absorbance normalized to zero hour (substrate use), 7 hr [2]: 0.33; 590 nm absorbance normalized to zero hour (substrate use), 8 hr [2]: 0.33; 590 nm absorbance normalized to zero hour (substrate use), 9 hr [2]: 0.34; 590 nm absorbance normalized to zero hour (substrate use), 10 hr [2]: 0.34; 590 nm absorbance normalized to zero hour (substrate use), 11 hr [2]: 0.34; 590 nm absorbance normalized to zero hour (substrate use), 0 hr [3]: 1.00; 590 nm absorbance normalized to zero hour (substrate use), 1 hr [3]: 0.28; 590 nm absorbance normalized to zero hour (substrate use), 2 hr [3]: 0.29; 590 nm absorbance normalized to zero hour (substrate use), 3 hr [3]: 0.30; 590 nm absorbance normalized to zero hour (substrate use), 4 hr [3]: 0.31; 590 nm absorbance normalized to zero hour (substrate use), 5 hr [3]: 0.32; 590 nm absorbance normalized to zero hour (substrate use), 6 hr [3]: 0.32; 590 nm absorbance normalized to zero hour (substrate use), 7 hr [3]: 0.33; 590 nm absorbance normalized to zero hour (substrate use), 8 hr [3]: 0.33; 590 nm absorbance normalized to zero hour (substrate use), 9 hr [3]: 0.34; 590 nm absorbance normalized to zero hour (substrate use), 10 hr [3]: 0.34; 590 nm absorbance normalized to zero hour (substrate use), 11 hr [3]: 0.34 |
| O=C(O)CCC(=O)C(=O)O [a-Keto-Glutaric Acid] | 1.00 | 1.29 | 1.54 | 1.40 | 1.45 | 1.98 | 1.69 | 1.80 | 1.93 | 2.00 | 1.00 | 1.29 | 1.52 | 1.61 | 1.00 | 0.28 | 0.37 | 0.45 | 0.46 | 0.51 | 590 nm absorbance normalized to zero hour (substrate use), 6 hr [2]: 0.54; 590 nm absorbance normalized to zero hour (substrate use), 7 hr [2]: 0.56; 590 nm absorbance normalized to zero hour (substrate use), 8 hr [2]: 0.58; 590 nm absorbance normalized to zero hour (substrate use), 9 hr [2]: 0.64; 590 nm absorbance normalized to zero hour (substrate use), 10 hr [2]: 0.64; 590 nm absorbance normalized to zero hour (substrate use), 11 hr [2]: 0.69; 590 nm absorbance normalized to zero hour (substrate use), 0 hr [3]: 1.00; 590 nm absorbance normalized to zero hour (substrate use), 1 hr [3]: 0.28; 590 nm absorbance normalized to zero hour (substrate use), 2 hr [3]: 0.37; 590 nm absorbance normalized to zero hour (substrate use), 3 hr [3]: 0.45; 590 nm absorbance normalized to zero hour (substrate use), 4 hr [3]: 0.46; 590 nm absorbance normalized to zero hour (substrate use), 5 hr [3]: 0.51; 590 nm absorbance normalized to zero hour (substrate use), 6 hr [3]: 0.54; 590 nm absorbance normalized to zero hour (substrate use), 7 hr [3]: 0.56; 590 nm absorbance normalized to zero hour (substrate use), 8 hr [3]: 0.58; 590 nm absorbance normalized to zero hour (substrate use), 9 hr [3]: 0.64; 590 nm absorbance normalized to zero hour (substrate use), 10 hr [3]: 0.64; 590 nm absorbance normalized to zero hour (substrate use), 11 hr [3]: 0.69 |

Source: US11083725B2 (priority 2014, dated 2021)
